# From ChEMBL document CHEMBL1127869, “Angiotensin II receptor antagonists: imidazoles and pyrroles bearing hydroxymethyl and carboxy substituents” (Bioorg Med Chem Lett, 1994)
# Experiments:
# Rattus norvegicus = assay: Compound tested for in vivo inhibitory dose against All-induced pressor response in normotensive, conscious rats; format: functional; conditions: read-out: ID50 (the source's name)
# [1] = target: T1, Type-1 angiotensin II receptor (Bos taurus, UniProt P25104); assay: Inhibition of [125l]-All binding to bovine adrenal cortex; format: tissue-based
# T1 sequence (P25104 whole entry): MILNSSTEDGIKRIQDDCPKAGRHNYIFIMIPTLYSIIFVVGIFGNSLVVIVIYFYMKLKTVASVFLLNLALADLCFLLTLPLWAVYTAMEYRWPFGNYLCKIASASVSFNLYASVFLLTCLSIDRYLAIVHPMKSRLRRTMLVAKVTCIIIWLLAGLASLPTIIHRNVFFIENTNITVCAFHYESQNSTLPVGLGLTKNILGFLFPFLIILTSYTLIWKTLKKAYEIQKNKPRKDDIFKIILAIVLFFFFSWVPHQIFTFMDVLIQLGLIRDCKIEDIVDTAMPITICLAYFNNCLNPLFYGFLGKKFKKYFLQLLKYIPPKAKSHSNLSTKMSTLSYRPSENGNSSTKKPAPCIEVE
IC50 [1],SMILES,ED50 (Rattus norvegicus)
2700 nM,CCCc1nc(CO)c(CO)n1Cc1ccc(-c2ccccc2C(=O)O)cc1,2.1 mg/kg
–,CCCCc1nc(Cl)c(C(=O)O)n1Cc1ccc(-c2ccccc2C(=O)O)cc1,0.21 mg/kg
320 nM,CCCc1nc(C(=O)O)c(C(=O)O)n1Cc1ccc(-c2ccccc2C(=O)O)cc1,0.67 mg/kg
–,CCCc1nc(C(=O)O)c(CO)n1Cc1ccc(-c2ccccc2C(=O)O)cc1,8.8 mg/kg
490 nM,CCCCc1nc(Cl)c(CO)n1Cc1ccc(-c2ccccc2C(=O)O)cc1,2.3 mg/kg
150 nM,CCc1nc(CO)c(C(=O)O)n1Cc1ccc(-c2ccccc2C(=O)O)cc1,0.27 mg/kg
2100 nM,CCCc1cc(C(=O)O)c(CO)n1Cc1ccc(-c2ccccc2C(=O)O)cc1,5.9 mg/kg
4500 nM,CCCc1cc(COC)c(C(=O)O)n1Cc1ccc(-c2ccccc2C(=O)O)cc1,4.2 mg/kg
120 nM,CCCCc1nc(Cl)c(CO)n1Cc1ccc(-c2ccccc2-c2nnn[nH]2)cc1 [LOSARTAN],0.3 mg/kg
58 nM,CCCc1nc(CO)c(C(=O)O)n1Cc1ccc(-c2ccccc2C(=O)O)cc1,0.069 mg/kg
22 nM,CCCCc1nc(Cl)c(C(=O)O)n1Cc1ccc(-c2ccccc2-c2nn[nH]n2)cc1 [CARBOXYLIC ACID METABOLITE],0.1 mg/kg
65 nM,CCCCc1nc(CO)c(C(=O)O)n1Cc1ccc(-c2ccccc2C(=O)O)cc1,0.22 mg/kg
840 nM,CCCc1nc(CO)c(C(=O)OCC)n1Cc1ccc(-c2ccccc2C(=O)O)cc1,1.5 mg/kg
